These results are taken from publication PMC5746216, “CYP51 is an essential drug target for the treatment of primary amoebic meningoencephalitis (PAM)” (PLoS Neglected Tropical Diseases, 2017).

Assay [1] deals with T1, sterol 14-demethylase (NfCYP51) (Naegleria fowleri, UniProt A0A2H4A2U9).
T1 construct: gene NF0102700; 34 N-terminal membrane anchoring residues replaced with MAKKTSSKGKL
T1 sequence (A0A2H4A2U9 12-460): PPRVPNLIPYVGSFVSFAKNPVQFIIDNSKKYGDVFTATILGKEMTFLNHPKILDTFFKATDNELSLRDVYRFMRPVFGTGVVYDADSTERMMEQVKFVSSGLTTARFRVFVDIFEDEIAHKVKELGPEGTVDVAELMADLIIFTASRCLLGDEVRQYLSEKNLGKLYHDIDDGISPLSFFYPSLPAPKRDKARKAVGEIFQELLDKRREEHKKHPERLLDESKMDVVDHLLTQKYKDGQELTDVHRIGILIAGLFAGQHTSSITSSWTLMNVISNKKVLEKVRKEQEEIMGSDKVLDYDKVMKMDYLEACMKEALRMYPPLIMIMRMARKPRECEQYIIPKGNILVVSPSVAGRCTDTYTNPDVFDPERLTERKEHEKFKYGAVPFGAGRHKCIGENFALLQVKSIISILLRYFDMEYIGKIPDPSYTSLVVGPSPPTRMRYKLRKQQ
The assay is described as follows: co-crystal structure at […] Å; UV-vis type II titration. The assay is classed as binding.

Assay [2] deals with T1, sterol 14-demethylase (NfCYP51). The assay is described as follows: UV-vis spectral binding titration (type I difference spectrum).

Structures are written as SMILES.

Take `OC(Cn1cncn1)(Cn1cncn1)c1ccc(F)cc1F` [Fluconazole]: the “co-crystal structure at 2.70 Å; UV-vis type II titration” value in assay [1] is recorded as “fluconazole, binds NfCYP51 with affinity roughly an order of magnitude exceeding that of natural substrate, 31-norlanosterol”.

Usually Kd stands for the free concentration of one partner at which half of the binding sites on the other are occupied at equilibrium, for simple one-to-one binding. With `CC(C)=CCC[C@@H](C)[C@H]1CC[C@@]2(C)C3=C(CC[C@]12C)[C@@]1(C)CC[C@H](O)[C@@H](C)[C@@H]1CC3` [compound 14, 31-Norlanosterol], in assay [2], binding was characterised by a dissociation constant (Kd) of 124 ± 25 nM.
